Reference: patent US20040006236A1, “Diaminopropionic acid derivatives” (priority 1999, published 2004)
Where a name gives a salt, the structure may show the parent alone. Read-outs that look alike come from different tables or passages of the source.

What was measured:
[1] = tested on: cell-surface Mac-1 adhesion to immobilized fibrinogen (HL-60 cells); test: Mac-1/Fibrinogen cell-based screening assay; set-up: species or system human; conditions: Homo sapiens, HL-60, HL-60 cells; read-out: Mac-1/Fgn Cell based Assay IC50
Protocol: Cellular Mac-1/Fibrinogen antagonist activity, defined as the ability to inhibit cell-surface Mac-1 adhesion to immobilized fibrinogen, was quantitated by a cell based assay. Human fibrinogen was coated onto 96 well microtiter plates (1 μg in 100 μL TBS) overnight at 4° C. The plates were then blocked with 150 μL of 10% polyvinyl pyrrolidone (PVP) in TBS for 1 h at 37° C. Plates were washed 3 times (150 μL each) with TBS. […] A ten-fold excess of volume of the same buffer was added and cells were centrifuged. The medium was decanted and cells were resuspended at a concentration of 2×10^6 cells/mL in RPMI/0.05% BSA/0.2 mM MnCl2. Stock solutions (10 mM in DMSO) of test compounds were diluted to 2.5 mM with DMSO. […] Each sample was further diluted 50-fold with RPMI/0.05% BSA/0.2 mM MnCl2. Equal volumes of labeled cells were then added to assay tubes containing diluted compounds. […] Cells were incubated for 10 min at 37° C. with gentle shaking, then dispensed (100 μL per well) onto fibrinogen coated plates and incubated for 30 min at 37° C./5% CO2. Unbound cells were gently washed with TBS two times.

[2] = tested on: T lymphocyte proliferation (C57BI/6 spleen cells with irradiated BALB/c spleen cells); test: Mixed lymphocyte reaction (MLR), one-way; format: cell-based, mice; conditions: read-out: MLR IC50
How it was run: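 One-way murine MLR: C57BI/6 responder splenocytes proliferate against irradiated BALB/c stimulators while exposed to serially diluted antagonists in supplemented RPMI1640 for 3 days. Proliferation read as [3H]-thymidine uptake over a final 6 h pulse (0.5 μCi/well), scintillation counted.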

[3] = target: T1, ICAM-1 binding to immobilized Mac-1 (Homo sapiens, UniProt P05107+P11215); test: Mac-1/ICAM-1 screening assay (solid-phase ELISA); conditions: read-out: Mac-1/ICAM-1 Protein-Protein Assay IC50
T1 construct: made in house; host or cells: transfected 293 cells (Mac-1)
How it was run: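 Competitive solid-phase ELISA: membrane Mac-1 from transfected 293 cells coated at 3 μg/mL in 20 mM Hepes pH 7.2/0.14 M NaCl/1 mM MnCl2; compounds (0.12 nM-20 μM, 1:4 series) plus 5dICAM-Ig (40 μg/mL, added) 2 h at 37° C. Bound ICAM-Ig detected with HRP anti-human IgG Fc, TMB, A450; IC50 reported.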

T1 sequence (P05107 23-769, other chains not shown): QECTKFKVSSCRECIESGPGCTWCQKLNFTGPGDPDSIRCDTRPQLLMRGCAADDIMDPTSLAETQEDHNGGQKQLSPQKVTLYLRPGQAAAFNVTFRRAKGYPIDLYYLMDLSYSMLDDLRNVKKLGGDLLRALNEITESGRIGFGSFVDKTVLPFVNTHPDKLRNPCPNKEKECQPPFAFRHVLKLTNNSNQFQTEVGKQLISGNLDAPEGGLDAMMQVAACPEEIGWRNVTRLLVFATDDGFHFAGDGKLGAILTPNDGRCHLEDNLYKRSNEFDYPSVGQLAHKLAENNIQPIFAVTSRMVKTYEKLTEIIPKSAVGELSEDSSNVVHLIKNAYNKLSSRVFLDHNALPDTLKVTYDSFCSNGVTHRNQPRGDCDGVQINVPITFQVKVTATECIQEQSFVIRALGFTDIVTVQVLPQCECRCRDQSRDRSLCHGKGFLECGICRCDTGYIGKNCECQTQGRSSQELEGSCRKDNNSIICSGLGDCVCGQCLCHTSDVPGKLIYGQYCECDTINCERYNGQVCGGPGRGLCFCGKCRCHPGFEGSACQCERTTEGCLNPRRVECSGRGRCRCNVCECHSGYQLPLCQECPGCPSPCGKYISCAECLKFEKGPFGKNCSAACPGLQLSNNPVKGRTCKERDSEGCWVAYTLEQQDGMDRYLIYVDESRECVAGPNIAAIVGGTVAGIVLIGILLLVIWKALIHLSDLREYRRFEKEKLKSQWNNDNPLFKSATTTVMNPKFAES

Structure (SMILES)	IC50 [1] [µM]	IC50 ([2]; Mus musculus, T-lymphocyte) [µM]	IC50 [3] [µM]	IC50 ([2]; sodium salt) [µM]
O=C(CSc1ccncc1)NC[C@H](NC(=O)c1ccc(C(=O)NCc2cccc(O)c2)cc1Cl)C(=O)O [Example 90]	0.711	1.45	0.029	
O=C(NCc1cccc(O)c1)c1ccc(C(=O)N[C@@H](CNC(=O)c2cc3ccccc3s2)C(=O)O)c(Cl)c1 [Example 175]	0.345	4	0.023	
O=C(NCc1cccc(O)c1)c1ccc(C(=O)N[C@@H](CNC(=O)c2ccc3ncsc3c2)C(=O)O)c(Cl)c1 [Example 177]	0.157	0.95	0.019	
O=C(NCc1cccc(O)c1)c1ccc(C(=O)N[C@@H](CNC(=O)c2cccc3ccccc23)C(=O)O)c(Cl)c1 [Example 178]	0.125	0.9	0.019	
O=C(NCc1cccc(O)c1)c1ccc(C(=O)N[C@@H](CNC(=O)c2c3c(nc4ccccc24)CCCC3)C(=O)O)c(Cl)c1 [Example 190]	4.85		0.417	
O=C(NCc1cccc(O)c1)c1ccc(C(=O)N[C@@H](CNC(=O)c2ccoc2)C(=O)O)c(Cl)c1 [Example 259, N-[2-chloro-4-[[[(3-hydroxyphenyl)methyl]amino]carbonyl]benzoyl]-3-(furan-3-carbonyl)amino-L-alanine]	0.063	0.26		
O=C(NCc1cccc(O)c1)c1ccc(C(=O)N[C@@H](CNC(=O)c2cccs2)C(=O)O)c(Cl)c1 [Example 305, N-[2-chloro-4-[[[(3-hydroxyphenyl)methyl]amino]carbonyl]benzoyl]-3-(thiophene-2-carbonyl)amino-L-alanine, sodium salt]			0.019	0.1
O=C(NCc1cccc2[nH]ccc12)c1ccc(C(=O)N[C@@H](CNC(=O)c2ccoc2)C(=O)O)c(Cl)c1 [Example 316]		0.425	0.024	
Cc1ccc(C(=O)NC[C@H](NC(=O)c2ccc(C(=O)NCc3cccc4[nH]ccc34)cc2Cl)C(=O)O)s1 [Example 317]		1.75	0.036	
O=C(NCc1cccc2c1CCN2)c1ccc(C(=O)N[C@@H](CNC(=O)c2cccs2)C(=O)O)c(Cl)c1 [Example 318, 3-(thiophene-2-carbonyl)amino-N-[2-chloro-4-[[(2,3-dihydro-1H-indol-4-ylmethyl)amino]carbonyl]benzoyl]-L-alanine]		1.85	0.098	
O=C(CCc1cccc(O)c1)c1ccc(C(=O)N[C@@H](CNC(=O)c2cccs2)C(=O)O)c(Cl)c1 [Example 319, N-[2-chloro-4-[1-oxo-3-(3-hydroxyphenyl)propyl]benzoyl]-3-(thiophene-2-carbonyl)amino-L-alanine]		0.665	0.043	
O=C(NC[C@H](NC(=O)c1ccc(-n2nnnc2NCc2cccc(O)c2)cc1Cl)C(=O)O)c1cccs1 [Example 321]		0.775	0.076	
O=C(NCc1cccc2[nH]cnc12)c1ccc(C(=O)N[C@@H](CNC(=O)c2cccs2)C(=O)O)c(Cl)c1 [Example 322]		3.6	0.051	
Cc1cc(C(=O)NCc2cccc(O)c2)ccc1C(=O)N[C@@H](CNC(=O)c1cccs1)C(=O)O [Example 323]	0.026	0.325		
O=C(NCc1cccc2[nH]ncc12)c1ccc(C(=O)N[C@@H](CNC(=O)c2cccs2)C(=O)O)c(Cl)c1 [Example 327, N-[2-chloro-4-[[[(1H-indazol-4-yl)methyl]amino]carbonyl]benzoyl]-3-(thiophene-2-carbonyl)amino-L-alanine]	0.018	0.18		
O=C(NCc1cccc2[nH]ccc12)c1ccc(C(=O)N[C@@H](CNC(=O)c2cccs2)C(=O)O)c(Br)c1 [Example 329]		0.42	0.025	
Cc1cc(C(=O)NCc2cccc(O)c2)cc(C)c1C(=O)N[C@@H](CNC(=O)c1cccs1)C(=O)O [Example 330]	0.006	0.032		
C[C@@H](NC(=O)c1ccc(C(=O)N[C@@H](CNC(=O)c2cccs2)C(=O)O)c(Br)c1)c1cccc2ccccc12 [Example 332]		1.54	0.068	
Cc1cc(C(=O)N[C@H](C)c2cccc3ccccc23)cc(C)c1C(=O)N[C@@H](CNC(=O)c1cccs1)C(=O)O [Example 333]	0.012	0.18		
Nc1cccc(CNC(=O)c2ccc(C(=O)N[C@@H](CNC(=O)c3cccs3)C(=O)O)c(Br)c2)c1 [Example 334, N-[4-[[[(3-aminophenyl)methyl]amino]carbonyl]-2-bromobenzoyl]-3-(thiophene-2-carbonyl)amino-L-alanine]		0.495	0.071	
Cc1cc(C(=O)NCc2cccc(O)c2)cc(C)c1C(=O)N[C@@H](CNC(=O)c1ccsc1)C(=O)O [Example 336, N-[2,6-dimethyl-4-[[[(3-hydroxyphenyl)methyl]amino]carbonyl]benzoyl]-3-(thiophene-3-carbonyl)amino-L-alanine]	0.0054	0.033		
Cc1cc(C(=O)NCc2cccc(O)c2)cc(C)c1C(=O)N[C@@H](CNC(=O)c1cc(F)cc(F)c1)C(=O)O [Example 337, N-[2,6-dimethyl-4-[[[(3-hydroxyphenyl)methyl]amino]carbonyl]benzoyl]-3-(3,5-difluorobenzoylamino)-L-alanine]	0.012	0.059		
Cc1cc(C(=O)NCc2cccc(O)c2)cc(Cl)c1C(=O)N[C@@H](CNC(=O)c1ccsc1)C(=O)O [Example 339, N-[2-chloro-4-[[[(3-hydroxyphenyl)methyl]amino]carbonyl]-6-methylbenzoyl]-3-[(thiophene-3-carbonyl)amino]-L-alanine]	0.0031	0.029		
Cc1cc(C(=O)NCc2cccc(O)c2)cc(Cl)c1C(=O)N[C@@H](CNC(=O)c1cc(F)cc(F)c1)C(=O)O [Example 340, N-[2-chloro-4-[[[(3-hydroxyphenyl)methyl]amino]carbonyl]-6-methylbenzoyl]-3-[(3,5-difluorobenzoyl)amino]-L-alanine]	0.0062	0.036		
O=C(NCc1cccc(O)c1)c1cc(Cl)c(C(=O)N[C@@H](CNC(=O)c2cccs2)C(=O)O)c(Cl)c1 [Example 342, N-[2,6-dichloro-4-[[[(3-hydroxyphenyl)methyl]amino]carbonyl]benzoyl]-3-[(thiophene-2-carbonyl)amino]-L-alanine]	0.001	0.027		
O=C(NCc1cccc(O)c1)c1cc(Cl)c(C(=O)N[C@@H](CNC(=O)c2ccsc2)C(=O)O)c(Cl)c1 [Example 343, N-[2,6-dichloro-4-[[[(3-hydroxyphenyl)methyl]amino]carbonyl]benzoyl]-3-[(thiophene-3-carbonyl)amino]-L-alanine]	0.0017	0.03		
O=C(NCc1cccc(O)c1)c1cc(Cl)c(C(=O)N[C@@H](CNC(=O)c2cc(F)cc(F)c2)C(=O)O)c(Cl)c1 [Example 344, N-[2,6-dichloro-4-[[[(3-hydroxyphenyl)methyl]amino]carbonyl]benzoyl]-3-[(3,5-difluorobenzoyl)amino]-L-alanine]	0.0048	0.034		
O=C(NCc1cccc(O)c1)c1cc(Cl)c(C(=O)N[C@@H](CNC(=O)c2cc(O)cc(O)c2)C(=O)O)c(Cl)c1 [Example 345, N-[2,6-dichloro-4-[[[(3-hydroxyphenyl)methyl]amino]carbonyl]benzoyl]-3-(3,5-dihydroxybenzoylamino)-L-alanine]	0.0003	0.002		
